Test results from PMC9927457 (Microbiology Spectrum, 2023).
Converted amounts (≈) assume the structure as drawn. Like-named read-outs stand apart in the source and are kept apart here.

Experiments:
[1] = test system: HepG2 cells; test: HepG2 cytotoxicity; format: cell-based, human; conditions: 3 days exposure, CellTiter-Glo
Experimental: HepG2 cells were used to measure eukaryotic cytotoxicity. Viability of HepG2 was measured using CellTiter-Glo reagent (Promega) after 3 days of exposure to compounds. […] Staurosporine controls (maximum inhibition) and a staurosporine dose response were included on every plate.

[2] = test system: M. tuberculosis strain under expressing LepB (LepB-UE); test: microbe, parasite or virus in culture; format: cell-based, Mycobacterium tuberculosis
[3] = test system: M. tuberculosis wild-type strain; test: MIC against wild-type M. tuberculosis; format: cell-based, Mycobacterium tuberculosis; conditions: for MIC: read-out: MIC Wild type
[4] = Plasma protein binding (Rapid Equilibrium Dialysis); format: in vitro ADME, human; conditions: human plasma; for fraction unbound: human, plasma
Experimental: Molecule fraction fraction Post-Assay
Table S5. Plasma protein binding
Protein binding was measured in human plasma using Rapid Equilibrium Dialysis (RED) devices (Pierce) according to the manufacturers’ instructions; 5 µM compounds in plasma were dialysed against PBS for 4 h at 37C. Compounds were detected by LC-MS/MS in plasma and PBS

[5] = test system: Caco-2 cells; test: Caco-2 permeability
Experimental: (§1) Permeability was measured across Caco-2 cells cultured in a Millipore 96-well Caco-2 plate. For apical to basolateral (A→B) permeability, 10 μM compound was added to the apical (A) side and amount of permeation was determined on the basolateral (B) side; for basolateral to apical (B→A) permeability, the compound was added to the B side and the amount of permeation was determine on the A side. Time points were taken at 2 h.
Table S2. Permeability. Permeability was measured using Caco-2 cells after 1 and 2 hours incubation with compound. (A→B) is Apical to Basolateral; (B→A) is Basolateral to Apical. Data is expressed as permeability (10-6 cm s-1). dQ/dt is rate of permeation, C0 is initial concentration […]
Article Duration direction value replicate replicate mean recovery

[6] = Microsomal metabolic stability; conditions: human, microsomes, pH 7.4
Experimental: as §1
Table S3. Metabolic stability. Metabolic stability was measured using human liver microsomes. […]

[7] = biological target: SPase activity in M. tuberculosis H37Rv cell membrane fractions (Mycobacterium tuberculosis, UniProt P9WKA1); test: Inhibition of secretion (SPase activity) in membrane fractions; format: biochemical; conditions: fluorogenic peptide substrate 2 μM; 4 h, 37 °C
SPase activity in M. tuberculosis H37Rv cell membrane fractions, sequence (P9WKA1 whole entry): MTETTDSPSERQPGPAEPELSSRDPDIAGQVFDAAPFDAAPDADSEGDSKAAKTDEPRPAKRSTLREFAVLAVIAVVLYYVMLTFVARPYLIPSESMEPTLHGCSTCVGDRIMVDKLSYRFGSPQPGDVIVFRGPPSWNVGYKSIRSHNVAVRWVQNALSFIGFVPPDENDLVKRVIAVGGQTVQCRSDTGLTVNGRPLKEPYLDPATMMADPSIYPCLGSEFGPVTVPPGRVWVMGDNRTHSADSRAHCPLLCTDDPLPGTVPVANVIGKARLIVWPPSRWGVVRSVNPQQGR

[8] = test system: RAW 264.7 macrophages; test: Cytotoxicity against infected macrophages; format: cell-based, murine; conditions: Mus musculus; infected RAW264:7 cells, 72 h; read-out: IC50 Macrophage
Experimental: Murine RAW 264.7 macrophages (ATCC TIB-71) were infected with M. tuberculosis DsRed (DREAM8) ([29]) as described at a multiplicity of infection of 1 for 24 h, washed, harvested, and dispensed into 384-well plates ([30]). Infected macrophages were exposed to compounds for 72 h; cell nuclei were stained with SYBR green I. Plates were imaged with an ImageXpress Micro High Content Screening System (Molecular Devices) using a ×4 objective and FITC and Texas Red channels. MetaXpress was used to determine the integrated intensity of bacteria or macrophages. […] Isoniazid and staurosporine controls (maximum inhibition) and dose responses were included on every plate.

[9] = concentration required to inhibit growth by 90%, 5 days culture
[10] = Mycobacterium tuberculosis, 120 h
[11] = Mycobacterium tuberculosis, 120 h, concentration required to inhibit growth by 90%, 5 days culture

Compound | IC50 ([1]; Homo sapiens, HepG2, 72 h) [µM] | MIC [2, 10] [µM] | MIC [3, 11] [µM] | other results
1-butyl-3-(5-methoxybenzo[d]oxazol-2-yl)thiourea [Molecule 35] | – | – | – | IC50 [1]: > 100 µM; MIC [2]: >200 µM; MIC [3, 9]: >200 µM
CC(C)NC[C@H](O)COc1cccc2ccccc12 (racemic) [Propanolol, propanolol, reference compound] | – | – | – | Mean plasma fraction Unbound Fuplasma ([4]; 5 µM, dialysed against PBS 4 h at 37C): 28.00%; Post-Assay Recovery ([4]; RED device): 89.4%; Efflux ratio (Re) ([5]; Papp(B→A)/Papp(A→B)): 1.5; Mean A→B Papp ([5]; apical to basolateral, 10 μM compound, 2 h): 20 10^−6 cm/s; Mean B→A Papp ([5]; basolateral to apical, 10 μM compound, 2 h): 30 10^−6 cm/s
COc1ccc2c(c1)[C@]13CCCC[C@@H]1[C@H](C2)N(C)CC3 [Dextromethorphan, dextromethorphan, reference compound] | – | – | – | half-life at 1 µM [6]: 1.97 h; microsomal CLint at 1 µM [6]: 19.5 µL/min/mg
CCCCCC(=O)Nc1nc2ccccc2s1 [Molecule 2] | 74 ± 13 | > 200 | > 200 | –
Cc1ccc(C(=O)Nc2nc3ccccc3s2)cc1 [Molecule 3] | > 100 | 140 (≈ 37.6 µg/mL) | > 200 | –
CCCCCCNc1nc2ccccc2s1 [Molecule 4] | 55 ± 8.5 | < 100 | 125 (≈ 29.3 µg/mL) | MIC LepB-UE [2]: 82 ± 16 µM (≈ 19.2 µg/mL); MIC Wild type [3, 9]: 125 ± 13 µM (≈ 29.3 µg/mL)
CCCCNC(=O)Nc1nc2ccccc2s1 [Molecule 5] | 39 ± 25 | < 100 | > 200 | MIC LepB-UE [2]: 61 ± 9.1 µM (≈ 15.2 µg/mL)
S=C(NCc1ccccc1)Nc1nc2ccccc2s1 [Molecule 6] | 6 ± 0.1 | – | > 200 | –
COc1ccc(NC(=S)Nc2nc3ccccc3s2)cc1 [Molecule 7] | > 100 | > 200 | > 200 | –
COc1ccc(NC(=S)Nc2nccs2)cc1 [Molecule 8] | 21 ± 19 | – | 27 (≈ 7.16 µg/mL) | IC50 [7]: > 200 µM; MIC Wild type [3, 9]: 27 ± 17 µM (≈ 7.16 µg/mL)
CCCCNC(=S)Nc1ccccn1 [Molecule 9] | 65 ± 50 | 100 (≈ 20.9 µg/mL) | > 200 | –
c1ccc2scnc2c1 [Molecule 10] | 7.6 ± 6.2 | > 100 | > 200 | –
CCCCNC(=S)Nc1nc2ccccc2[nH]1 [Molecule 11, 1-(benzo[d]imidazol-2-yl)-3-butylthiourea] | 6 ± 0.1 | 29 ± 2.1 (≈ 7.2 µg/mL) | 120 ± 10 (≈ 29.8 µg/mL) | IC50 [7]: > 200 µM
CCCCNC(=S)Nc1nc2c(Cl)cccc2s1 [Molecule 13, 1-butyl-3-(4-chlorobenzo[d]thiazol-2-yl)thiourea] | > 100 | 7.9 (≈ 2.37 µg/mL) | > 200 | IC50 [8]: 12 ± 2.8 µM; IC50 [7]: > 200 µM; MIC LepB-UE [2]: 7.9 ± 0.6 µM (≈ 2.37 µg/mL)
CCCCNC(=S)NC1=NCCS1 [Molecule 15, 1-butyl-3-(4,5-dihydrothiazol-2-yl)thiourea] | 75 | 160 (≈ 34.8 µg/mL) | 170 (≈ 37 µg/mL) | IC50 [1]: > 100 µM; MIC LepB-UE [2]: 160 ± 1.0 µM (≈ 34.8 µg/mL); MIC Wild type [3, 9]: 170 ± 1.0 µM (≈ 37 µg/mL)
CCCCNC(=S)Nc1nc(C)cs1 [Molecule 16, 1-butyl-3-(4-methylthiazol-2-yl)thiourea] | > 100 | 85 ± 17 (≈ 19.5 µg/mL) | 59 ± 1 (≈ 13.5 µg/mL) | IC50 [7]: > 200 µM
CCCCNC(=S)Nc1nc(C)c(C)s1 [Molecule 17, 1-butyl-3-(4,5-dimethylthiazol-2-yl)thiourea] | > 100 | 112 ± 25 (≈ 27.3 µg/mL) | > 200 | –
CCCCNC(=S)Nc1nc(C)c[nH]1 [Molecule 18, 1-butyl-3-(4-methyl-1H-imidazol-2-yl)thiourea] | 61 ± 4 | 51 (≈ 10.8 µg/mL) | 44 (≈ 9.34 µg/mL) | MIC LepB-UE [2]: 51 ± 1.0 µM (≈ 10.8 µg/mL); MIC Wild type [3, 9]: 44 ± 8.0 µM (≈ 9.34 µg/mL)
CCCCNC(=S)Nc1ccnn1C [Molecule 19, 1-butyl-3-(1-methyl-1H-pyrazol-5-yl)thiourea] | > 100 | > 200 | > 200 | IC50 [7]: > 200 µM
CCCCNC(=S)Nc1nccc(C)n1 [Molecule 20, 1-butyl-3-(4-methylpyrimidin-2-yl)thiourea] | > 100 | > 200 | > 200 | –
CCCCNC(=S)Nc1ncc(C)o1 [Molecule 22, 1-butyl-3-(5-methyloxazol-2-yl)thiourea] | 32 ± 19 | 8 to 9 (≈ 1.71 to 1.92 µg/mL) | 10 (≈ 2.13 µg/mL) | IC50 [8]: 7.1 ± 1.5 µM; MIC LepB-UE [2]: 9.1 ± 0.4 µM (≈ 1.94 µg/mL); MIC Wild type [3, 9]: 10 ± 12 µM (≈ 2.13 µg/mL)
CCCCSC(=S)Nc1nc2ccccc2s1 [Molecule 25, butyl benzo[d]thiazol-2-ylcarbamodithioate] | 29 ± 1 | 101 ± 27 (≈ 28.5 µg/mL) | 90 ± 20 (≈ 25.4 µg/mL) | –
CCCCN(C)C(=S)Nc1nc2ccccc2s1 [Molecule 27, 3-(benzo[d]thiazol-2-yl)-1-butyl-1-methylthiourea] | 5.6 | 155 to 195 (≈ 43.3 to 54.5 µg/mL) | 195 ± 7 (≈ 54.5 µg/mL) | IC50 [1]: 6 ± 5 µM; IC50 [7]: > 200 µM; MIC LepB-UE [2]: 155 ± 36 µM (≈ 43.3 µg/mL); MIC [3, 10]: 155 to 195 µM (≈ 43.3 to 54.5 µg/mL)
CC(C)CNC(=S)Nc1nc2ccccc2s1 [Molecule 28, 1-(benzo[d]thiazol-2-yl)-3-isobutylthiourea] | – | 12 to 21 (≈ 3.18 to 5.57 µg/mL) | – | MIC LepB-UE [2]: 21 ± 11 µM (≈ 5.57 µg/mL)
CCCCNC(=S)Nc1ccc2scnc2c1 [Molecule 30, 1-(benzo[d]thiazol-5-yl)-3-butylthiourea] | > 100 | 49 ± 15 (≈ 13 µg/mL) | 73 ± 12 (≈ 19.4 µg/mL) | –
CCCCNC(=S)Nc1nc2cc(Cl)ccc2o1 [Molecule 32, 1-butyl-3-(5-chlorobenzo[d]oxazol-2-yl) thiourea] | 9 ± 3 | 68 ± 3 (≈ 19.3 µg/mL) | 84 ± 13 (≈ 23.8 µg/mL) | –
CCCCNC(=S)Nc1nc2ccc(Cl)cc2o1 [Molecule 33, 1-butyl-3-(6-chlorobenzo[d]oxazol-2-yl)thiourea] | 32 ± 3 | 49 ± 6 (≈ 13.9 µg/mL) | > 200 | IC50 [7]: > 200 µM
CCCCNC(=S)Nc1nc2cccc(Cl)c2o1 [Molecule 34, 1-butyl-3-(7-chlorobenzo[d]oxazol-2-yl)thiourea] | 13 ± 3 | 53 ± 1 (≈ 15 µg/mL) | > 200 | IC50 [8]: 5.8 ± 0.4 µM
CC(=O)CC(c1ccccc1)c1c(O)c2ccccc2oc1=O (centres unmarked) [Warfarin, reference compound] | – | – | – | recovery at 4 h, 5 µM ([4]; RED device, read-out: Post-Assay Recovery): 88.6%; fraction unbound ([4]; 5 µM, dialysed against PBS 4 h at 37C, read-out: Mean plasma fraction Bound (converted)): 0.007; fraction unbound ([4]; 5 µM, dialysed against PBS 4 h at 37C, read-out: Mean plasma fraction Unbound Fuplasma): 0.0067
